US10004253B1, “Method for increasing the health condition of crustaceans in aquaculture, survival rate and pigmentation” (priority 2017, dated 2018)

Legend:
P. monodon shrimp = test: Total pigment and Astaxanthin enantiomers deposited, commercial ponds, Example 7; assay type: in vivo; details: feed with 60 ppm, sampled at three grams weight, lyophilized
Procedure: The concentration of total pigment in crustacean specimens extract was carried out by UV/VIS spectrophotometric methods measurement absorbance at 470 nm (A 1%=2100 in Hexane).
The Astaxanthin enantiometers deposited by the crustaceans specimens, or from its different organs, were quantified by HPLC after derivatization into the corresponding dicamphanates (Vecchi and Muller 1979).
7. —Comparison of the different Astaxanthin enantiomers deposited by P. monodon that were given the following three different diets: commercial feed as control; commercial feed containing 120 ppm of Lutein or Zeaxanthin Long Chain Diesters Concentrate; and commercial feed that contained 60 ppm of synthetic Astaxanthin (Carophyll Pink). […]
At three grams weight, the ponds were sampled, the specimens were lyophillized and the dehydrated samples were ground and analyzed.
The concentration of total pigment in the crustacean specimens extract was carried out by UV/Vis spectrophotometric methods measurement absorbance at 470 nm (A 1%=2100 in hexane).
The analysis of Astaxanthin R/S enantiomers deposited by the crustacean specimens, were quantified by HPLC after derivatization into the corresponding dicamphanates (Vecchi and Muller 1979), in order to differentiate the Astaxanthin enantiomers.

white shrimp L. vannamei = test: Different sources and doses of carotenoids in balanced feed, 60 day treatment, Example 6; assay type: in vivo; details: 75 ppm in feed
From the text: 6. —Effects of different sources and doses of carotenoids in the balanced feed, growout, survival, and deposition of pigments in white shrimp L. vannamei. The following is a review of the results obtained regarding the dosing of Lutein/Zeaxanthin Long Chain Diesters in the feed, as compared to feed that contained synthetic Astaxanthin (Carophyll Pink). The average survival and final weight results of the experimental work with shrimp L. vannamei results, obtained after a 60 day treatment, are shown in Table V: […]

## CC1=C(/C=C/C(C)=C/C=C/C(C)=C/C=C/C=C(C)/C=C/C=C(C)/C=C/C2=C(C)C(=O)[C@@H](O)CC2(C)C)C(C)(C)C[C@H](O)C1=O [ROCHE Astaxanthin, Astaxanthin]
P. monodon shrimp
  Concentration of total pigment in specimens extract (UV/Vis 470 nm): 152.5 ppm
White shrimp L. vannamei
  FINAL WEIGHT grs: 7.77 grs
  SURVIVAL %: 63.33%
White shrimp L. vannamei; HPLC
  ASTAX. IN HEAD (hepathopanchreas): 29.2 micrograms of Astaxanthin per gram of tissue
  ASTAX. IN MUSCLE: 11.4 micrograms of Astaxanthin per gram of tissue
  ASTAX. IN SHELL (carapace): 75.1 micrograms of Astaxanthin per gram of tissue
